# Results as given in patent US7998952B2, “Thiolactams and uses thereof” (Millennium Pharmaceuticals, Inc., priority 2008, dated 2011).
# Molecular target: T1, recombinant human PLK1[2-369]T210D (Homo sapiens, UniProt P53350, T210D)
# T1 construct: recombinant human PLK1[2-369]T210D; Smt (SUMO) fusion partner (N, cleaved yes); host or cells: E. coli
# Test: PLK1 DELFIA Kinase Assay
# Assay type: biochemical
# Conditions: 50 μM ATP, 2 μM peptide substrate, 0.3 nM enzyme, 90 minutes at room temperature
# Method: Recombinant human PLK1 was expressed in E. coli as an N-terminal Smt fusion protein using a proprietary vector (pSGX4) by Structural Genomics (SGX). The fusion partner was removed through cleavage with Ulp1 after an initial purification using a Ni2+ affinity column.
# PLK1 DELFIA® Kinase Assay
# The enzymatic reaction mixture, with or without PLK inhibitors, was incubated 90 minutes at room temperature before termination with 50 μL of STOP buffer containing 1% BSA, 0.05% Tween20, 100 mM EDTA. 50 μL of the stopped enzyme reaction mixture was transferred to a Neutravidin-coated 384-well plate (Pierce) and incubated at room temperature for 60 minutes. […] The wells were washed and then the bound europium was liberated using 50 μL of Enhancement Solution (Perkin Elmer). Quantification of europium was done using a Pherastar (BMG Labtech)
# T1 sequence (P53350 2-369 T210D): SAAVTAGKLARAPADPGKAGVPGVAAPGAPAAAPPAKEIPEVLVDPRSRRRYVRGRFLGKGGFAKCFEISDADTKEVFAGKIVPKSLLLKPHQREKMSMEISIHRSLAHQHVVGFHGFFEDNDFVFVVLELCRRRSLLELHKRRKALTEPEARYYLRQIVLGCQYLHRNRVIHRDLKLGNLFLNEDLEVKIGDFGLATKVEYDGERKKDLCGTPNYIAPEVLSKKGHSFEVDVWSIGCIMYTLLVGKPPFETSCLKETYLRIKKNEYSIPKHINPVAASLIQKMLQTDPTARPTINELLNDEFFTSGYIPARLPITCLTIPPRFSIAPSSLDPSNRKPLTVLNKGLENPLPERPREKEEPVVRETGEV
row,IC50,SMILES
1,< 5 nM,"COc1ccc2c(c1)NC(=S)Cc1cnc(Nc3cc(CCCN(C)C)cnc3C)nc1-2 [Compound I-1, 2-({5-[3-(dimethylamino)propyl]-2-methylpyridin-3-yl}amino)-9-methoxy-5,7-dihydro-6H-pyrimido[5,4-d][1]benzazepine-6-thione]"
2,< 5 nM,"CCN1CCN(c2cnc(C)c(Nc3ncc4c(n3)-c3ccc(C(F)(F)F)cc3NC(=S)C4)c2)C[C@@H]1C [Compound I-2, 2-({5-[(3S)-4-ethyl-3-methylpiperazin-1-yl]-2-methylpyridin-3-yl}amino)-9-(trifluoromethyl)-5,7-dihydro-6H-pyrimido[5,4-d][1]benzazepine-6-thione]"
3,5 to 25 nM,"Cc1nc(N(C)C2CCN(C)C2)ccc1Nc1ncc2c(n1)-c1ccc(Cl)cc1NC(=S)C2 (centres unmarked) [Compound I-3, 9-chloro-2-({2-methyl-6-[methyl(1-methylpyrrolidin-3-yl)amino]pyridin-3-yl}amino)-5,7-dihydro-6H-pyrimido[5,4-d][1]benzazepine-6-thione]"
4,< 5 nM,"Cc1ccc(Nc2ncc3c(n2)-c2ccc(C(F)(F)F)cc2NC(=S)C3)c(C)n1 [Compound I-4, 2-[(2,6-dimethylpyridin-3-yl)amino]-9-(trifluoromethyl)-5,7-dihydro-6H-pyrimido[5,4-d][1]benzazepine-6-thione]"
5,< 5 nM,"CCc1ccc2c(c1)NC(=S)Cc1cnc(Nc3cc(CCCN(C)C)cnc3C)nc1-2 [Compound I-5, 2-({5-[3-(dimethylamino)propyl]-2-methylpyridin-3-yl}amino)-9-ethyl-5,7-dihydro-6H-pyrimido[5,4-d][1]benzazepine-6-thione]"
6,< 5 nM,"Cc1ncc(CCN2CCN(C)CC2)cc1Nc1ncc2c(n1)-c1ccc(Cl)cc1NC(=S)C2 [Compound I-6, 9-chloro-2-({2-methyl-5-[2-(4-methylpiperazin-1-yl)ethyl]pyridin-3-yl}amino)-5,7-dihydro-6H-pyrimido[5,4-d][1]benzazepine-6-thione]"
7,< 5 nM,"Cc1nc(N2CCCC(N(C)C)C2)ccc1Nc1ncc2c(n1)-c1ccc(Cl)cc1NC(=S)C2 (centres unmarked) [Compound I-7, 9-chloro-2-({6-[3-(dimethylamino)piperidin-1-yl]-2-methylpyridin-3-yl}amino)-5,7-dihydro-6H-pyrimido[5,4-d][1]benzazepine-6-thione]"
8,< 5 nM,"COc1ncc(Nc2ncc3c(n2)-c2ccc(Cl)cc2NC(=S)C3)cc1CCCN(C)C [Compound I-8, 9-chloro-2-({5-[3-(dimethylamino)propyl]-6-methoxypyridin-3-yl}amino)-5,7-dihydro-6H-pyrimido[5,4-d][1]benzazapine-6-thione]"
9,< 5 nM,"Cc1nc(N2CCCC(N(C)C)C2)ccc1Nc1ncc2c(n1)-c1ccc(C(F)(F)F)cc1NC(=S)C2 (centres unmarked) [Compound I-9, 2-({6-[3-(dimethylamino)piperidin-1-yl]-2-methylpyridin-3-yl}amino)-9-(trifluoromethyl)-5,7-dihydro-6H-pyrimido[5,4-d][1]benzazepine-6-thione]"
10,< 5 nM,Cc1ncc(CCN2C[C@@H](C)O[C@H](C)C2)cc1Nc1ncc2c(n1)-c1ccc(Cl)cc1NC(=S)C2 [Compound I-10]
11,< 5 nM,"CCN1CCN(c2cncc(Nc3ncc4c(n3)-c3ccc(Cl)cc3NC(=S)C4)c2)C[C@@H]1C [Compound I-11, 9-chloro-2-({5-[(3S)-4-ethyl-3-methylpiperazin-1-yl]pyridin-3-yl}amino)-5,7-dihydro-6H-pyrimido[5,4-d][1]benzazepine-6-thione]"
12,< 5 nM,"Cc1ncc(CCCCN(C)C)cc1Nc1ncc2c(n1)-c1ccc(C(F)(F)F)cc1NC(=S)C2 [Compound I-12, 2-({5-[4-(dimethylamino)butyl]-2-methylpyridin-3-yl}amino)-9-(trifluoromethyl)-5,7-dihydro-6H-pyrimido[5,4-d][1]benzazepine-6-thione]"
13,< 5 nM,"S=C1Cc2cnc(Nc3ccc(N4CCOCC4)nc3)nc2-c2ccc(Cl)cc2N1 [Compound I-13, 9-chloro-2-[(6-morpholin-4-ylpyridin-3-yl)amino]-5,7-dihydro-6H-pyrimido[5,4-d][1]benzazepine-6-thione]"
14,< 5 nM,"Cc1ncc(C2CCN(C)CC2)cc1Nc1ncc2c(n1)-c1ccc(Cl)cc1NC(=S)C2 [Compound I-14, 9-chloro-2-{[2-methyl-5-(1-methylpiperidin-4-yl)pyridin-3-yl]amino}-5,7-dihydro-6H-pyrimido[5,4-d][1]benzazepine-6-thione]"
15,< 5 nM,"Cc1ncc(CCN2CCC(N(C)C)C2)cc1Nc1ncc2c(n1)-c1ccc(Cl)cc1NC(=S)C2 (centres unmarked) [Compound I-15, 9-chloro-2-[(5-{2-[3-(dimethylamino)pyrrolindin-1-yl]ethyl}-2-methylpridin-3-yl)amino]-5,7-dihydro-6H-pyrimido[5,4-d][1]benzazepine-6-thione]"
16,5 to 25 nM,"Cc1nc(CCCN(C)C)ccc1Nc1ncc2c(n1)-c1ccc(Cl)cc1NC(=S)C2 [Compound I-16, 9-chloro-2-({6-[3-(dimethylamino)propyl]-2-methylpyridin-3-yl}amino)-5,7-dihydro-6H-pyrimido[5,4-d][1]benzazepine-6-thione]"
17,< 5 nM,"CCN1CCC(c2cnc(C)c(Nc3ncc4c(n3)-c3ccc(Cl)cc3NC(=S)C4)c2)CC1 [Compound I-17, 9-chloro-2-{[5-(1-ethylpiperidin-4-yl)-2-methylpyridin-3-yl]amino}-5,7-dihydro-6H-pyrimido[5,4-d][1]benzazepine-6-thione]"
18,< 5 nM,"Cc1nc(NC2CCOCC2)ccc1Nc1ncc2c(n1)-c1ccc(C(F)(F)F)cc1NC(=S)C2 [Compound I-18, 2-{[2-methyl-6-(tetrahydro-2H-pyran-4-ylamino)pyridin-3-yl]amino}-9-(trifluoromethyl)-5,7-dihydro-6H-pyrimido[5,4-d][1]benzazepine-6-thione]"
19,< 5 nM,"Cc1nc(NC2CCOCC2)ccc1Nc1ncc2c(n1)-c1ccc(Cl)cc1NC(=S)C2 [Compound I-19, 9-chloro-2-{[2-methyl-6-(tetrahydro-2H-pyran-4-ylamino)pyridin-3-yl]amino}-5,7-dihydro-6H-pyrimido[5,4-d][1]benzazepine-6-thione]"
20,< 5 nM,Cc1nc(C(=O)NCCN2CCOCC2)ccc1Nc1ncc2c(n1)-c1ccc(C(F)(F)F)cc1NC(=S)C2 [Compound I-21]
21,< 5 nM,"Cc1nc(NC2CCN(C)CC2)ccc1Nc1ncc2c(n1)-c1ccc(Cl)cc1NC(=S)C2 [Compound I-22, 9-chloro-2-({2-methyl-6-[(1-methylpiperidin-4-yl)amino]pyridin-3-yl}amino)-5,7-dihydro-6H-pyrimido[5,4-d][1]benzazepine-6-thione]"
22,< 5 nM,"Cc1nc(NCCCN(C)C)ccc1Nc1ncc2c(n1)-c1ccc(C(F)(F)F)cc1NC(=S)C2 [Compound I-23, 2-[(6-{[3-(dimethylamino)propyl]amino}-2-methylpyridin-3-yl)amino]-9-(trifluoromethyl)-5,7-dihydro-6H-pyrimido[5,4-d][1]benzazepine-6-thione]"
23,< 5 nM,"COc1ncc(CCCN(C)C)cc1Nc1ncc2c(n1)-c1ccc(Cl)cc1NC(=S)C2 [Compound I-24, 9-chloro-2-({5-[3-(dimethylamino)propyl]-2-methoxypyridin-3-yl}amino)-5,7-dihydro-6H-pyrimido[5,4-d][1]benzazepine-6-thione]"
